4 substances from patent US6355785B1, “Guanosine-rich oligonucleotide integrase inhibitors” (Aronex Pharmaceuticals, Inc., priority 1993, dated 2002) can be followed below.

Read-outs that look alike come from different tables or passages of the source. In the oligonucleotide strings, read from the 5' end, every base follows the letter of its sugar. An asterisk marks phosphorothioate; unmarked linkages are phosphodiester. Other units and linkages are bracketed, terminal groups are in braces. A string of capitals states the bases alone. d = 2'-deoxy (DNA)

In one data set the target is T7 polymerase (Escherichia phage T7, UniProt P00573). Kind of data set: Bacterial T7 in-vitro transcription assay. Format: biochemical. On the procedure: In this assay system, a 2 kb fragment (HindIII to EcoR1) of the FMLV virus (clone 57) was molecularly cloned between the HindIII/EcoR1 sites 10 bp downstream of the bacterial T7 promoter (p275A) or 50 bp downstream of the bacterial T3 promoter (pBSFMLV2). A schematic representation of these two recombinant plasmids can be seen in FIG. 1. Isolated recombinant DNA was then digested with DdeI. Oligonucleotides were then incubated with the digested DNA and the mixture was subjected to in-vitro transcription using either the T7 or T3 bacterial enzymes.
T7 polymerase, sequence (P00573 whole entry, the tested form may be a part): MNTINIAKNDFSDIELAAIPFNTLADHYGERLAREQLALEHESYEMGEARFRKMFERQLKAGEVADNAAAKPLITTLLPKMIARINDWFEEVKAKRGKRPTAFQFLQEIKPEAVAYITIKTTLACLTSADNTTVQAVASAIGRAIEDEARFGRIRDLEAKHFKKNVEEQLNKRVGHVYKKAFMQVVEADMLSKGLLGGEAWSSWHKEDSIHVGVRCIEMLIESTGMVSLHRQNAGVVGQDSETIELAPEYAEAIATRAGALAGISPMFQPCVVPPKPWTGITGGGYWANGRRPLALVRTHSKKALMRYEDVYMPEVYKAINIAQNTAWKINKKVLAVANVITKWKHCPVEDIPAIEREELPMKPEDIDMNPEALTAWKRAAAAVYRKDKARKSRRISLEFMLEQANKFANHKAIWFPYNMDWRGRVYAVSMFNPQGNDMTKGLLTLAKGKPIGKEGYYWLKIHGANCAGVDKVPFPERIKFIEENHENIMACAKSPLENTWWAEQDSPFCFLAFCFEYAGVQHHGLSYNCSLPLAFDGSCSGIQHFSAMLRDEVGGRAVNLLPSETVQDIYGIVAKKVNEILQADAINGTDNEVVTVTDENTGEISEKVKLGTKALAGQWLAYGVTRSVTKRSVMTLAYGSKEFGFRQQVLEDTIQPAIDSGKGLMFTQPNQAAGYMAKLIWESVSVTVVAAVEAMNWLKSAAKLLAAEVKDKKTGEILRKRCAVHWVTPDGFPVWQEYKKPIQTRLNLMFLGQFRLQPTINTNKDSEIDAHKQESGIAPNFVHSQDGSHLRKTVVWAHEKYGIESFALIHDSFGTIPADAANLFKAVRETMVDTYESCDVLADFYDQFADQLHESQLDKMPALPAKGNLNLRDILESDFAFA

Data set [1] has as its system SUP T1 cells. The data set is described as follows: Cytotoxicity assay, CellTiter 96 (MTS), SUP T1 cells. To be noted: read-out: TC50 (concentration reducing cell proliferation by 50%); SUP T1, dye (MTS) metabolism assay.
Another data set deals with HSV-1 IE175 promoter. The data set is described as follows: Eukaryotic in vitro transcription (HeLa cell nuclear extract).
In data set [2] the target is T1, FMLV reverse transcriptase (Friend murine leukemia virus, UniProt P26810).
T1 construct: Culture media containing FMLV reverse transcriptase (RT) was mixed with various concentrations; endogenous in cells; host or cells: culture medium of FMLV-infected murine fibroblasts (pLRB215)
Kind of data set: Reverse transcriptase assay (ELOSA). To be noted: read-out: inhibitory concentration for 50% reduction in RT activity. Format: biochemical.

A further data set relates to HIV-1DV. Kind of data set: HIV-1 p24 production in SUP T1 cells. Format: cell-based. The note with it: SUP T1, HIV-1DV, four days.
The test system of data set [3] is SUP T1 cells.
A further data set concerns the target HIV-1 RT (Human immunodeficiency virus type 1 group M subtype B, UniProt P04585). Kind of data set: In vitro inhibition of HIV-1 RT (kinetic analysis). The data set is classed as biochemical.
Data set [4] deals with HIV-1 gp120 interaction with CD4 (Human immunodeficiency virus type 1 group M subtype B, UniProt P04578).
The test system of a further data set is HIV-1 strain DV. Kind of data set: HIV-1 induced syncytia formation assay in SUP T1 cells. Format: cell-based. The note with it: SUP T1, HIV-1DV, four days; read-out: IC50 Syn (syncytium inhibition).
The test system of another data set is HSV-2 strain HG52. Kind of data set: HSV-2 viral yield reduction assay in Vero cells.
Data set [5] concerns HIV-1 strains (SKI, RF, DV, IIIB, ADP/141). Kind of data set: microbe, parasite or virus in culture. Format: cell-based.
A further data set has as its system HIV-2 (ROD, EHO). The data set is described as follows: HIV-2 infection assay in MT4 cells. Format: cell-based. To be noted: read-out: IC50 virus production.
A further data set has as its system SIVMAC251. The data set is classed as cell-based, simian immunodeficiency virus. The note with it: SIVMAC251, MT4; read-out: IC50 virus production.
In the next data set the test system is Influenza A (H3N2). The note with it: Influenza A (H3N2) assay.
Data set [6] has as its target recombinant HIV-1 integrase (wild-type) (Human immunodeficiency virus type 1 group M subtype B, UniProt P12497). Kind of data set: HIV-1 integrase 3′-processing and strand transfer assays. Format: biochemical. Also on record: Purified recombinant HIV-1 integrase enzyme (wild-type) was a generous gift from Dr. R. Craigie; purchased gift of Dr. R. Craigie, Laboratory of Molecular Biology, NIDDK (not bought). On the procedure:
Integrase enzyme assays. Purified recombinant HIV-1 integrase enzyme (wild-type) was a generous gift from Dr. R. Craigie, Laboratory of Molecular Biology, National Institute of Diabetes and Digestive and Kidney Diseases. The enzyme (0.25 μM) was preincubated in reaction buffer at 20° C. for 30 minutes. All 3′-processing and strand-transfer reactions were performed as described previously by Fresen et al. (Fresen, et al., Proc. Natl. Acad. Sci. USA 90:2399-2403 (1993)) and Mazumder et al. (Mazumder, et al., Proc. Natl. Acad. Sci. USA 91:5771-5775 (1994)). Enzyme reactions were quenched by the addition of Maxam-Gilbert loading dye, and an aliquot was electrophoresed on a denaturing 20% polyacrylamide gel. Gels were then dried and subjected to autoradiography using Kodax XAR-2 film or exposed in a Molecular Dynamics Phospholmager cassette.
Integrase was preincubated at a final concentration of 200 (for HIV-1 and HIV-2) or 600 nM (for FIV and SIV) with inhibitor in reaction buffer (50 mM Nac1, 1 mM HEPES, pH 7.5, 50 μM dithiothreitol, 10% glycerol (wt/vol), 7.5 mM MnCl2 or MgCL2 (when specified), 0.1 mg/mL bovine serum albumin, 20 mM 2-mercaptoethanol, 10% dimethyl sulfoxide, and 25 mM MOPS, pH 7.2) at 30° C. for 30 minutes. When magnesium was used as the divalent metal ion, polyethylene glycol was added at a final concentration of 5% to increase activity as previously described (Engelman & Craigie, 1995). Preincubation for 30 minutes of the enzyme with inhibitor was performed to optimize increases the inhibitory activity in the 3′-processing reaction (Fesen et al., 1994). Then, 30 nM of the 5′-end ^32P-labeled linear oligonucleotide substrate was added, and incubation was continued for an additional 1 hr. The final reaction volume was 16 μL.
Electrophoresis and quantitation. Reactions were quenched by the addition of an equal volume […] of loading dye (98% deionized formamide, 10 mM EDTA, 0.025% xylene cyanol, 0.025% bromophenol blue). An aliquot (5 μL) was electrophoresed on a denaturing 20% polyacrylamide gel (0.09 M Tris-borate pH 8.3, 2 mM EDTA, 20% acrylamide, 8M urea). Gels were dried, exposed in a Molecular Dynamics Phosphorimager cassette, and analyzed using a Molecular Dynamics phosphorimager (Sunnyvale, Calif.). Percent inhibition was calculated using the following equation:
where C, N, and D are the fractions of 21mer substrate converted to 19mer (3′-processing product) or strand transfer products for DNA alone, DNA plus integrase, and integrase plus drug, respectively.
Antiviral assay. The RF laboratory strain of HIV-1 was used to infect established cell lines for one hour at 37° C. prior to washing and resuspension in medium containing increasing concentrations of drug. […] Purified recombinant HIV-1 integrase enzyme (wild-type) was a generous gift from Dr. Craigie, Laboratory of Molecular Biology, NIDDK. All 3′-processing and strand-transfers were performed as described previously by Fresen et al. (Fresen et al. (1993) Proc. Natl. Acad. Sci. VSA 90, 2399-2403) and Mazurnder et al. (Mazumder et al. (1994) Proc. Natl. Acad. Sci. USA 91, 5771-75).

The test system of data set [7] is Vesicular Stomatitis virus.

“5′-gatccatgtcagtgacactgcgtagatccgatgatccagtcgatg-3′ [I100-11]”: the T7 directed transcription result at T7 polymerase was “increased the level of specific transcripts”. In the data set on SUP T1 cells [1], the CC50 turned out to be 46.5 µM. Moreover, in the data set with HSV-1 IE175 promoter, the “eukaryotic transcription from HSV-1 IE175 promoter” value was “capable of inhibiting eukaryotic transcription”.
One may read the Ki as a measure of affinity in units of concentration, obtained from inhibition or displacement. Turning to “5′-gttgggggttgttggtggggtggtgg-3′ [I100-12] (GTTGGGGGTTGTTGGTGGGGTGGTGG; phosphorothioate backbone, further chemistry not given here) [PT version of I100-00]”, the IC50 in data set [2] is under 500 nM; with HIV-1DV, under 200 nM; in the data set with HIV-1 RT (read-out: ID50 (the source's name)), 15 nM; in [4] (read-out: ID50 [CD4], oligo binding to immobilized CD4) it was 475 nM; in data set [4] (read-out: ID50 [gp 120], oligo preincubated with soluble gp120) it was 80 nM; in the data set with HIV-1 strain DV, 225 nM. Also, in the data set on SUP T1 cells [3], the CC50 stood at 18 µM. In the data set with HIV-1 RT, the Ki came out at 5 nM.
Take “B106-97: fully phosphorothioated version of B106-71 (dG*dT*dG*dG*dT*dT*dG*dG*dT*dG*dG*dT*dG*dG*dT*dG*dT*dG*dT*dG*dG*dG*dT*dT*dT*dG*dG*dG*dG*dT*dG*dG*dG*dG*dG*dG; 3' end capped with propanolamine or cholesterol, which one not given here)”: the “concentration reducing virus by 50%” value with HSV-2 strain HG52 was “same levels as B106-96”.
As for “Dextran sulfate [DS5000, reference compound]”, the IC50 virus-induced cytopathogenicity in the data set on Vaccinia virus is over 400 µg/mL; in the data set on Sindbis virus (Sindbis virus) it was 10 µg/mL; with Semliki forest virus (Semliki forest virus) it was over 400 µg/mL; in the data set on Polio virus-1 it was over 400 µg/mL; with HSV-2 (G) (HSV-2 (G)), 2 µg/mL; with Coxsackie virus (B4) (Coxsackie virus (B4)), over 400 µg/mL. Also, the IC50 virus-induced cytopathogenicity with Tacaribe stood at 13.5 µg/mL; with RSV (A2) (RSV (A2)), 4 µg/mL; in the data set on Yellow Fever virus, 26 µg/mL; in the data set with HSV-1 (HSV-1 (KOS)) it was 2 µg/mL; in the data set with HSV-1 (HSV-1 TK (B2006)), 2 µg/mL; with HSV-1 (HSV-1 TK (VMW1837)), 2 µg/mL. The IC50 virus-induced cytopathogenicity was found to be 13 µg/mL in the data set on Junin virus, 10.9 µg/mL with Punta Toro virus (Punta Toro virus) and 20 µg/mL in [7]. Further, the “MCC minimum concentration altering normal cell morphology” value in the data set with Vaccinia virus, with Sindbis virus (Sindbis virus assay), in the data set on Semliki forest virus (Semliki forest virus assay), in the data set on Polio virus-1, in the data set with HSV-2 (G) (HSV-2 (G) assay) and in the data set on Coxsackie virus (B4) (Coxsackie virus (B4) assay) was over 400 μg/mL in each case. Moreover, the “MCC minimum concentration altering normal cell morphology” value is over 200 μg/mL in the data set with Tacaribe; over 200 μg/mL in the data set with RSV (A2) (RSV (A2) assay); over 200 μg/mL in the data set on Yellow Fever virus; over 400 μg/mL in the data set with HSV-1 (HSV-1 (KOS) assay); over 400 μg/mL with HSV-1 (HSV-1 TK (B2006) assay); over 400 μg/mL in the data set with HSV-1 (HSV-1 TK (VMW1837) assay). The “MCC minimum concentration altering normal cell morphology” value with Junin virus is over 200 μg/mL; with Punta Toro virus (Punta Toro virus assay), over 400 μg/mL; with Influenza A (H3N2) it was over 400 μg/mL; in data set [7] it was over 400 μg/mL. The IC50 in [5] (HIV-1 ADP/141 (AZT resistant), MT4, read-out: IC50 virus production) was 32 ± 8 nM; in data set [5] (HIV-1 IIIB, CEM-SS or MT4, read-out: Antiviral Assay IC50 IIIB), 31 nM; in data set [5] (HIV-1 IIIB, MT4, read-out: IC50 virus production) it was 34 ± 16 nM; in data set [5] (HIV-1 RF, CEM-SS or MT4, read-out: Antiviral Assay IC50 RF), 16 nM; in [5] (HIV-1 RF, MT4, read-out: IC50 virus production) it was 18 ± 20 nM; in the data set with HIV-2 (ROD, EHO) (HIV-2EHO), 84 ± 86 nM. Moreover, the IC50 with HIV-2 (ROD, EHO) (HIV-2ROD) was 82 ± 88 nM; with SIVMAC251, 548 ± 480 nM; in data set [6] (3′-processing, read-out: Anti-Integrase Assay IC50 3′-proc), 70 nM; in [6] (strand transfer, read-out: Anti-Integrase Assay IC50 strand tran.), 60 nM.
